The subject of assay [1] is HT1080 fibrosarcoma cells. Description: Chemotaxis assay, uncoated Transwell inserts. Format: cell-based, human. The following applies: Homo sapiens, HT-1080, 4 h, uncoated filters. As to the method:
HT1080 cells exponentially growing in T-75 flasks (Nunc, Costar, Netherlands) were collected by trypsin–ethylenediaminetetraacetic acid treatment, washed with serum-containing medium and allowed to recover from trypsinisation for at least 30 min at 37°C. Cells were then washed twice in serum-free DMEM and diluted in the same medium supplemented with 0.1% bovine serum albumin (BSA, fraction V, Sigma, USA) to a cell density of 6 × 10^5 cells ml^−1.
The influence of coumarin derivatives (0.1, 1 and 10 μM) on HT1080 cell invasion and migration was assayed using Transwell cell culture inserts (Costar) and compared to the reference compound GI 129471 (1 μM), an MMP inhibitor ([Wheeler et al, 1998]).
For chemoinvasion assays, type IV collagen-coated membranes (see above) were used, whereas uncoated membranes were employed for chemotaxis assays. Lower wells of chambers were filled with DMEM supplemented with 20% FCS and 1% BSA (fraction V, ICN) as chemoattractant, in the presence or absence of coumarin derivative (final concentration 0.1, 1 and 10 μM) or GI 129471 (final concentration 1 μM). Cells (6 × 10^4) suspended in DMEM supplemented with 0.1% BSA (fraction V, ICN) were seeded in the upper wells. Chambers were subsequently incubated for 48 and 4 h for chemoinvasion and chemotaxis assays, respectively, in a humid atmosphere at 37°C (in order to maintain a chemotactic gradient, media from both lower and upper wells were renewed after 24 h). After incubation, filters were removed from the chambers, fixed in 4% paraformaldehyde for 15 min (4°C), permeabilised for 10 min in methanol (−20°C) and stained with Giemsa (4%) for 15 min. The upper surface of the filters was scrapped with a cotton swab and cells having reached the lower surface of the filters were visually counted using a light microscope (Vanox AH3, Olympus, Hamburg, Germany) at 20-fold magnification. Each assay was performed in triplicate. Results were expressed as percentages (±s.d.) of the migration of control cells.

Another assay addresses T1, MMP-9 (Homo sapiens, UniProt P14780).
T1 construct: purchased Calbiochem
The assay is described as follows: Inhibition of purified MMP-9. The following applies: purified enzyme, pH 7.5, 25°C. Format: biochemical. How it is done: Bovine α-CT and LMW-uPA (MW=33 000 Da) were purchased from Sigma, HMW-uPA (MW=54 000 Da) from Choay, trypsin (TRY) and THR from Boehringer-Indelheim (Germany), and MMP-2 and MMP-9 from Calbiochem. Human leucocyte elastase and PM were from Elastase Products Co. and Biogenic, respectively. Except for THR, HMW-uPA, MMP-2 and MMP-9, enzyme concentrations were determined by active-site titrations using the appropriate titrant ([Bender et al, 1966]; [Chase and Shaw, 1970]; [Powers and Gupton, 1977]). Several enzymes were assayed spectrophotometrically at 405 nm using the following p-nitroanilide substrates: succininyl-Ala2-Pro-Phe-p-nitroanilide (Suc-AAPF-p-NA), benzoyl-Arg-p-nitroanilide (Bz-R-p-NA) and methoxysuccinyl-Ala2-Pro-Val-p-nitroanilide (MeO-Suc-AAPV-p-NA) for α-CT, TRY and HLE, respectively (obtained from Sigma); or S-2238 ([…]), S-2444 (<Glu-Gly-Arg-p-nitroanilide) and S-2251 (H-D-Val-Leu-Lys-p-nitroanilide) for THR, HMW- and LMW-uPA, and PM, respectively (from Biogenic). Matrix metalloprotease-2 previously activated by treatment with APMA were assayed at 412 nm with the thiopeptide Ac-Pro-Leu-Gly-^Sleu-Leu-Gly-Oet in the presence of 5,5′-dithiobis(2-nitrobenzenic) acid (DTNB). […]

SMILES strings stand for the structures.

T1 sequence (P14780 94-707, species assumed): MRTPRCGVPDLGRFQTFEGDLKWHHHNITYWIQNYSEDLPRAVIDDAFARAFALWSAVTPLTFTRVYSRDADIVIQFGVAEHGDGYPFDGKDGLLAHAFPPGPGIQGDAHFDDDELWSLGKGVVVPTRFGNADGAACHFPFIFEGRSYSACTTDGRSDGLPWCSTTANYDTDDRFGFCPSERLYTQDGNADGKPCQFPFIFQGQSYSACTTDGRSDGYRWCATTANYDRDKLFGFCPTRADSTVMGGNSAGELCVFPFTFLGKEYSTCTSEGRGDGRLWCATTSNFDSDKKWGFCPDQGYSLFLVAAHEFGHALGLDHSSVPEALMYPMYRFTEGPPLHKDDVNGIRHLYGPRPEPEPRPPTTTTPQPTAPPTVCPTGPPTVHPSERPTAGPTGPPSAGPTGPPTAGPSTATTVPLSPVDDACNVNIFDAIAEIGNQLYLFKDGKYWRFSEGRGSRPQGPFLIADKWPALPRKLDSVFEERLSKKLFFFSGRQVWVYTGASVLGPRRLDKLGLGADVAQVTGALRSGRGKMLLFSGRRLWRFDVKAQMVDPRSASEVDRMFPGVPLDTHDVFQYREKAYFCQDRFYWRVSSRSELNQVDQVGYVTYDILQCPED

What is called inhibition is the drop in the measured response relative to a control, in per cent. In turn, `CC(=O)OCc1ccc2oc(=O)c(C(=O)Oc3cccc(Cl)c3)cc2c1` [compound 4, 3-chlorophenyl 6-acetoxymethyl-2-oxo-2H-1-benzopyran-3-carboxylate] displayed an inhibition at 0.1 µM in assay [1] (0.1 μM) of 20%. Also, in assay [1], the inhibition at 1 µM worked out at 50%. The inhibition at 10 µM in assay [1] (10 μM) turned out to be 80%. Moreover, at MMP-9, the “inhibition of MMP-9” value is “not affected”.

The compound `CC(=O)OCc1ccc2oc(=O)c(C(=O)Oc3cccc(Br)c3)cc2c1` [compound 7, 3-bromophenyl 6-acetoxy-methyl-2-oxo-2H-1-benzopyran-3-carboxylate] gave an inhibition at 1 µM in assay [1] of around 30%. The “inhibition of MMP-9” value at MMP-9 is recorded as “not affected”.

Source of the values: article PMC2376372, “3-Bromophenyl 6-acetoxymethyl-2-oxo-2H-1-benzopyran-3-carboxylate inhibits cancer cell invasion in vitro and tumour growth in vivo” (British Journal of Cancer, 2003).
